Assay results reported in patent publication US20220267329A1, “Dihydro-Spiro[Indoline-3:1'-Isoquinolin]-2-Ones and Their Analogues and Derivatives and Methods of Treating Cancer and Other Diseases” (The University of Buea, priority 2019, published 2022).

Experiments:
[1] = test system: EMT6 breast cancer cell line; experiment: Antiproliferative screening on EMT6 cancer cells; format: cell-based; settings: for activity at 100 µM: Mus musculus, EMT6, no ligand = 100, read-out: EMT6 cell proliferation (%)
Method: Representative compounds were screened tested for antiproliferative activity on the EMT6 breast cancer cell line. Screening was carried out according to published procedures (Zeng et al., 2014). In this screen, compounds were tested at 100 μM concentration.

[2] = test system: nonsmall cell lung cancer (NSCLC) cell lines; experiment: NCI-60 screen, NSCLC cell lines; format: cell-based, human; settings: NCI-60 preliminary screening; for inhibition at 10 µM: Homo sapiens, read-out: Percent (%) Inhibition of Cancer Cell Line, NSCLC
Method: (§1) Screening for Anticancer Activity—The NCI-60 panel: Representative compounds of the invention were subjected to anticancer testing in the National Cancer Institute (NCI) 60 screen. In this screen compounds are tested on a panel of sixty human cancer cell lines chosen from the following cancers: leukemia, nonsmall cell lung cancer (NSCLC), colon, melanoma, central nervous system (CNS), ovarian, renal, prostate and breast. The assay method is found on the NCI website (dtp.cancer.gov/discovery_development/nci-60/methodology.htm). In the NCI-60 assay, test compounds undergo preliminary screening at 10 μM concentration. The data is reported as percent growth relative to “no drug” control; therefore values between 0 and 100% denote growth inhibition.

[3] = test system: renal cancer cell lines; experiment: NCI-60 screen, renal cell lines; format: cell-based, human; settings: NCI-60 preliminary screening; for inhibition at 10 µM: Homo sapiens, read-out: Percent (%) Inhibition of Cancer Cell Line, Renal Cell
Method: as §1

[4] = test system: ovarian cancer cell lines; experiment: NCI-60 screen, ovarian cell lines; format: cell-based, human; settings: NCI-60 preliminary screening; for inhibition at 10 µM: Homo sapiens, read-out: Percent (%) Inhibition of Cancer Cell Line, Ovarian
Method: as §1

[5] = molecular target: sphingosine-1-phosphate receptor 1 (S1PR1) (Homo sapiens, UniProt P21453); experiment: Radioligand binding to sphingosine-1-phosphate receptor 1; settings: test compound 100 nM, 0.2 nM radioligand; read-out: % INHIBITION of binding to the SIP1 Receptor
Sequence of sphingosine-1-phosphate receptor 1 (S1PR1) (P21453 whole entry, species assumed): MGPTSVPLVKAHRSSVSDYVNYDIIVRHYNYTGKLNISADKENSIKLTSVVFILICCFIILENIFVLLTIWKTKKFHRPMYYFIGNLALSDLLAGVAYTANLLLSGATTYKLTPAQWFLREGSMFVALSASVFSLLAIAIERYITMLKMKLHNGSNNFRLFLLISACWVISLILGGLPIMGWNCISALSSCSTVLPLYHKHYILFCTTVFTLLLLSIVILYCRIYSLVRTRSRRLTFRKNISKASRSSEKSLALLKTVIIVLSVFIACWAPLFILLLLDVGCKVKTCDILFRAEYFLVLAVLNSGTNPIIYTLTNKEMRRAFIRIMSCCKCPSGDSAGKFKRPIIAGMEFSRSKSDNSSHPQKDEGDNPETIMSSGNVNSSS
Method: The binding of a representative group of compounds of this invention to sphingosine-1-phosphate receptor 1 (S1PR1) was determined by a published procedure (Rosenberg et al., 2016). In this assay, the test compound at 100 nM concentration was incubated with 0.2 nM radioligand. Active compounds or “hits” are defined as compounds that inhibit radioligand binding by 50% or more. […] This finding is significant because it establishes the 3′,4′-dihydro-2′H-[…]-2-one hybrid scaffold as an entirely new class of ligands for the sphingosine-1-phosphate receptors.

[6] = test system: breast cancer cell lines; experiment: NCI-60 screen, breast cell lines; format: cell-based, human; settings: NCI-60 preliminary screening; for inhibition at 10 µM: Homo sapiens, read-out: Percent (%) Inhibition of Cancer Cell Line, Breast
Method: as §1

[7] = test system: prostate cancer cell lines; experiment: NCI-60 screen, prostate cell lines; format: cell-based, human; settings: NCI-60 preliminary screening; for inhibition at 10 µM: Homo sapiens, Prostate cell, read-out: Percent (%) Inhibition of Cancer Cell Line, Prostate
Method: as §1

[8] = test system: leukemia cell lines; experiment: NCI-60 screen, leukemia cell lines; format: cell-based; settings: Homo sapiens, NCI-60 preliminary screening, read-out: Percent (%) Inhibition of Cancer Cell Line, Leukemia
Method: as §1

[9] = test system: central nervous system (CNS) cancer cell lines; experiment: NCI-60 screen, CNS cell lines; format: cell-based; settings: Homo sapiens, NCI-60 preliminary screening, read-out: Percent (%) Inhibition of Cancer Cell Line, CNS
Method: as §1

[10] = test system: panel of sixty human cancer cell lines; experiment: NCI-60 screen, whole panel; format: cell-based; settings: 10 μM
Method: as §1

[11] = test system: melanoma cell lines; experiment: NCI-60 screen, melanoma cell lines; format: cell-based; settings: Homo sapiens, NCI-60 preliminary screening, read-out: Percent (%) Inhibition of Cancer Cell Line, Melanoma
Method: as §1

Structure (SMILES)	inhibition at 0.1 µM [5]	activity at 100 µM [1]	inhibition at 10 µM [2]	inhibition at 10 µM [3]	inhibition at 10 µM [8]	inhibition at 10 µM [6]	further results
O=C1Nc2ccccc2C12NCCc1cccc(O)c12 (centres unmarked) [Compound 1a, 8′-Hydroxy-3′,4′-dihydro-2′H-spiro[indoline-3,1′-isoquinolin]-2-one]	–	104%	15%	14%	–	–	inhibition at 10 µM [4]: 10%
O=C1N(Cc2ccc(F)cc2)c2ccccc2C12NCCc1cccc(O)c12 (centres unmarked) [Compound 1d, 1-(4-Fluorobenzyl)-8′-hydroxy-3′,4′-dihydro-2H-spiro[indoline-3,1′-isoquinolin]-2-one]	≥ 50%	120%	–	–	–	–	melting point: 119 to 121 °C
O=C1N(Cc2ccc(Cl)cc2)c2ccccc2C12NCCc1cccc(O)c12 (centres unmarked) [Compound 1e, 1-(4-Chlorobenzyl)-8′-hydroxy-3′,4°-dihydro-2′H-spiro[indoline-3,1′-isoquinolin]-2-one]	–	–	–	–	–	–	EMT6 cell proliferation (%) ([1]; 100 μM, no ligand = 100): 77.91%; Percent (%) Inhibition of Cancer Cell Line, NSCLC ([2]; 10 μM): 30%; Percent (%) Inhibition of Cancer Cell Line, Renal Cell ([3]; 10 μM): 35%; Percent (%) Inhibition of Cancer Cell Line, Ovarian ([4]; 10 μM): 14%; Percent (%) Inhibition of Cancer Cell Line, Breast ([6]; 10 μM): 12%; Percent (%) Inhibition of Cancer Cell Line, Prostate ([7]; 10 μM): 14%
O=C1N(Cc2ccc(Cl)c(Cl)c2)c2ccccc2C12NCCc1cccc(O)c12 (centres unmarked) [Compound 1g, 1-(3,4-Dichlorobenzyl)-8′-hydroxy-3′,4′-dihydro-2′H-spiro[indoline-3,1′-isoquinolin]-2-one]	–	91.1%	–	–	–	–	melting point: 109 to 113 °C
O=C1N(Cc2ccc(Cl)c(Cl)c2)c2ccccc2C12NCCc1cc(O)ccc12 (centres unmarked) [Compound 2g, 1-(3,4-Dichlorobenzyl)-6′-hydroxy-3′,4′-dihydro-2′H-spiro[indoline-3,1′-isoquinolin]-2-one]	–	56.5%	25%	22 to 36%	19%	13%	inhibition of EMT6 cell proliferation ([1]; 100 μM): as much as fifty percent; inhibition at 10 µM [7]: 19%
COc1cc2c(cc1OC)C1(NCC2)C(=O)N(Cc2ccc(Br)cc2)c2ccc(Cl)cc21 (centres unmarked) [Compound 5f, 1-(4-Bromobenzyl)-5-chloro-6′,7′-dimethoxy-3′,4′-dihydro-2′H-spiro[indoline-3,1′-isoquinolin]-2-one]	–	–	–	–	38 to 55%	27 to 36%	inhibition at 10 µM [11]: 44%; inhibition at 10 µM [4]: 39%; antiproliferative activity in the NCI-60 panel [10]: most potent analogues; inhibition at 10 µM [7]: 52%

Further lines, with some results ahead:

inhibition at 0.1 µM [5]	Structure (SMILES)	activity at 100 µM [1]	inhibition at 10 µM [2]	inhibition at 10 µM [3]	inhibition at 10 µM [8]	inhibition at 10 µM [6]	further results
36.2%	COc1ccc2c(c1)CCNC21C(=O)Nc2ccccc21 (centres unmarked) [Compound 4a, 6′-Methoxy-3′,4′-dihydro-2′H-spiro[indoline-3,1′-isoquinolin]-2-one]	–	–	20%	–	–	inhibition at 10 µM [9]: 20%
38.1%	COc1ccc2c(c1)CCNC21C(=O)N(Cc2ccc(C)cc2)c2ccccc21 (centres unmarked) [Compound 4e, 6′-Methoxy-1-(4-methylbenzyl)-3′,4′-dihydro-2′H-spiro[indoline-3,1′-isoquinolin]-2-one]	–	25 to 28%	30 to 46%	–	25 to 30%	antiproliferative activity in the NCI-60 panel [10]: most potent analogues
≥ 50%	COc1cc2c(cc1OC)C1(NCC2)C(=O)Nc2ccc(Cl)cc21 (centres unmarked) [Compound 5b, 5-Chloro-6′,7′-dimethoxy-3′,4′-dihydro-2′H-spiro[indoline-3,1′-isoquinolin]-2-one]	–	–	22%	–	–	inhibition at 10 µM [9]: 32%
37.6%	COc1cc2c(cc1OC)C1(NCC2)C(=O)Nc2c(Br)cc(Br)cc21 (centres unmarked) [Compound 5c, 5,7-dibromo-6′,7′-dimethoxy-3′,4′-dihydro-2′H-spiro[indoline-3,1′-isoquinolin]-2-one]	–	–	27 to 35%	24%	–	inhibition at 10 µM [9]: 25%
32.4%	COc1cc2c(cc1OC)C1(NCC2)C(=O)N(Cc2ccc(C)cc2)c2ccccc21 (centres unmarked) [Compound 5e, 6′,7′-Dimethoxy-1-(4-methylbenzyl)-3′,4′-dihydro-2′H-spiro[indoline-3,1′-isoquinolin]-2-one]	–	–	25%	24 to 48%	22 to 24%	antiproliferative activity in the NCI-60 panel [10]: most potent analogues; inhibition at 10 µM [7]: 42%
41.1%	COc1cc2c(c(OC)c1OC)C1(NCC2)C(=O)Nc2ccc(Cl)cc21 (centres unmarked) [Compound 6b, 5-Chloro-6′,7′,8′-trimethoxy-3′,4′-dihydro-2′H-spiro[indoline-3,1′-isoquinolin]-2-one]	–	20%	28 to 31%	–	–	inhibition at 10 µM [4]: 20%
